This is an account of results in patent publication US10259810B2, “N-sulfonylated pyrazolo[3,4-b]pyridin-6-carboxamides and method of use” (AbbVie S.à.r.l., priority 2015, dated 2019).

The target in assay [1] is T1, ΔF508-CFTR (Homo sapiens, UniProt P13569, DEL508-508).
T1 construct: host or cells: CFBE41o-, doxycycline-inducible
As to the kind of experiment: CFTR cell surface levels using HRP-tagged ΔF508-CFTR expressing CFBE cells, in the presence of a co-corrector. The format is cell-based. Conditions: HRP-tagged ΔF508-CFTR CFBE cells, in the presence of 3 μM co-corrector; for EC50: read-out: EC50. The gist of the method: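 Chemiluminescent read-out of surface HRP (15 min, dark) after PBS washes. Activity is normalized as 100×(sample−DMSO)/(3 μM co-corrector alone−DMSO).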

For assay [2], the target named is T1, ΔF508-CFTR. The assay can be described thus: CFTR cell surface levels using HRP-tagged ΔF508-CFTR expressing CFBE cells, intrinsic corrector capacity. The class given is cell-based. Further details: % Activation: concentration or dose not given beside the values. Conditions: HRP-tagged ΔF508-CFTR expressing CFBE41o- cells, compound alone (intrinsic corrector capacity), 20 hours at 33° C.; for EC50: read-out: EC50. In a few lines:
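Read-out: chemiluminescent HRP activity of ECL4-HRP-tagged ΔF508-CFTR at the cell surface, 15 min substrate in dark. Normalized as 100×(sample−DMSO)/(positive control−DMSO).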

T1 sequence (P13569 with tags, fused parts or gaps DEL508-508): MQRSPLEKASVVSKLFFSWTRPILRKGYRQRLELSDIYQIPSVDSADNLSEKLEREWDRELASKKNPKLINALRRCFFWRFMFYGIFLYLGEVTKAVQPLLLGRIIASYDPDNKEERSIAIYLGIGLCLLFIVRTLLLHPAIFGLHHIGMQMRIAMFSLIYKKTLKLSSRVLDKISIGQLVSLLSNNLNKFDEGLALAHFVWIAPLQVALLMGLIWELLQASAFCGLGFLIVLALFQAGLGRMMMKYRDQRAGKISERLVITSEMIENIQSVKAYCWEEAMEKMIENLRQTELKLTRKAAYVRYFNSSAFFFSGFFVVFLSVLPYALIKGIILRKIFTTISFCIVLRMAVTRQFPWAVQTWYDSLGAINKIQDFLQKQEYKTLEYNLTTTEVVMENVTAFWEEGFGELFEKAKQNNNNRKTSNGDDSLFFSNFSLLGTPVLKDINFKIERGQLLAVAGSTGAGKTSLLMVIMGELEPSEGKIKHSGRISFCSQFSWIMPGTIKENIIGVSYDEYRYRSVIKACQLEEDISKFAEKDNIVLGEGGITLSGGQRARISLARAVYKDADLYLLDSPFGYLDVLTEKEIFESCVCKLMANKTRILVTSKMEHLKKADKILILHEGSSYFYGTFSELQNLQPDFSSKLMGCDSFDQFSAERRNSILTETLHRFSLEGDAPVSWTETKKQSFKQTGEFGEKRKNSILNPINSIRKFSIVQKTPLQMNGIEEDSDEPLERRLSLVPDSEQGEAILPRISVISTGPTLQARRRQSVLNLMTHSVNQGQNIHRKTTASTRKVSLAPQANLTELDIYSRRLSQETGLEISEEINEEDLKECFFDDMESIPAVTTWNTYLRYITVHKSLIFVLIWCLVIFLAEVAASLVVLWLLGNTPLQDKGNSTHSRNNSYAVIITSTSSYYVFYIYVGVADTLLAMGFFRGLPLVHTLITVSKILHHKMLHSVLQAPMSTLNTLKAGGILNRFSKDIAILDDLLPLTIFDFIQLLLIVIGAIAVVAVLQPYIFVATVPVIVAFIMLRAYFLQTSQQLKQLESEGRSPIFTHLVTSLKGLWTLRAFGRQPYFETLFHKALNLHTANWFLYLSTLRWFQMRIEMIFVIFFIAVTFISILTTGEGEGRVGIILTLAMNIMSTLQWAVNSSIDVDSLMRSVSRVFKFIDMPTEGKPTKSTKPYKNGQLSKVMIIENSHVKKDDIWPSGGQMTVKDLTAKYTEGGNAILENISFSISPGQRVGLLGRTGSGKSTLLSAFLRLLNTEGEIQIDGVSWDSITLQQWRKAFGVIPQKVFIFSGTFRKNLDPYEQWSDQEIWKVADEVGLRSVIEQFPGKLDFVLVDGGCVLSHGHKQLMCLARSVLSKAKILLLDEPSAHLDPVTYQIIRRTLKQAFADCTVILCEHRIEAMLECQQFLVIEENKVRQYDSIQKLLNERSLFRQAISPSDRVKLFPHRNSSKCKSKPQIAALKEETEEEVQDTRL

On to `CN1CCCN(C(=O)c2cc(N3CCC(CN4CCCC4)CC3)c3c(C4CCC4)nn(-c4ccccc4)c3n2)S1(=O)=O` [Compound 660, 2-(3-cyclobutyl-1-phenyl-4-{4-[(pyrrolidin-1-yl)methyl]piperidin-1-yl}-1H-pyrazolo[3,4-b]pyridine-6-carbonyl)-6-methyl-1λ^6,2,6-thiadiazinane-1,1-dione], for which the “% Activation” value stood at 172.1% in assay [1] and 34.92% in assay [2]. Also, the EC50 worked out at 235 nM in assay [1] and 932 nM in assay [2].

As for `O=C(c1cc(N2CCC(CN3CCCC3)CC2)c2c(C3CCC3)nn(-c3ccccc3)c2n1)N1CCCS1(=O)=O` [Compound 661, 2-(3-cyclobutyl-1-phenyl-4-{4-[(pyrrolidin-1-yl)methyl]piperidin-1-yl}-1H-pyrazolo[3,4-b]pyridine-6-carbonyl)-1λ^6,2-thiazolidine-1,1-dione], the “% Activation” value worked out at 227.45% in assay [1] and 67.125% in assay [2]. In addition, the EC50 came to 135 nM in assay [1] and 155 nM in assay [2].

Take `CN(C(=O)c1cc(N2CCC(CN3CCCC3)CC2)c2c(C3CCC3)nn(-c3ccccc3)c2n1)S(C)(=O)=O` [Compound 662, 3-cyclobutyl-N-(methanesulfonyl)-N-methyl-1-phenyl-4-{4-[(pyrrolidin-1-yl)methyl]piperidin-1-yl}-1H-pyrazolo[3,4-b]pyridine-6-carboxamide]: in assay [1], the “% Activation” value was 346.65% and the EC50 amounted to 104 nM. Besides, in assay [2], the “% Activation” value is reported as 134.35% and the EC50 came to 124 nM.

Take `O=C(c1cc(N2CCC(CN3CCCC3)CC2)c2c(C3CCC3)nn(-c3ccccc3)c2n1)N1CCCCS1(=O)=O` [Compound 663, 2-(3-cyclobutyl-1-phenyl-4-{4-[(pyrrolidin-1-yl)methyl]piperidin-1-yl}-1H-pyrazolo[3,4-b]pyridine-6-carbonyl)-1λ^6,2-thiazinane-1,1-dione]: in assay [1], the “% Activation” value came to 206.5% and the concentration for a half-maximal effect (EC50) was found to be 103 nM. Also, in assay [2], the “% Activation” value came to 57.9% and the EC50 was 234 nM.

In the case of `CN1CCCN(C(=O)c2cc(N3CCC(N4CCOCC4)CC3)c3c(C4CCC4)nn(-c4ccccc4)c3n2)S1(=O)=O` [Compound 664, 2-{3-cyclobutyl-4-[4-(morpholin-4-yl)piperidin-1-yl]-1-phenyl-1H-pyrazolo[3,4-b]pyridine-6-carbonyl}-6-methyl-1λ^6,2,6-thiadiazinane-1,1-dione], the “% Activation” value in assay [1] came to 230.48%; in assay [2], 70.082%. The EC50 was 172 nM in assay [1] and 278 nM in assay [2].

Regarding `O=C(c1cc(N2CCC(N3CCOCC3)CC2)c2c(C3CCC3)nn(-c3ccccc3)c2n1)N1CCCS1(=O)=O` [Compound 665, 2-{3-cyclobutyl-4-[4-(morpholin-4-yl)piperidin-1-yl]-1-phenyl-1H-pyrazolo[3,4-b]pyridine-6-carbonyl}-1λ^6,2-thiazolidine-1,1-dione], the figures for the “% Activation” value in assay [1] and in assay [2] were 271.8% and 101.9%, respectively. Moreover, the figures for the EC50 in assay [1] and in assay [2] were 101 nM and 259 nM, respectively.

For `O=C(c1cc(N2CCC(N3CCOCC3)CC2)c2c(C3CCC3)nn(-c3ccccc3)c2n1)N1CCCCS1(=O)=O` [Compound 666, 2-{3-cyclobutyl-4-[4-(morpholin-4-yl)piperidin-1-yl]-1-phenyl-1H-pyrazolo[3,4-b]pyridine-6-carbonyl}-1λ^6,2-thiazinane-1,1-dione], in assay [1], the “% Activation” value is 266.6% and the EC50 was 122 nM. In addition, in assay [2], the “% Activation” value was 99.775% and the EC50 amounted to 256 nM.

Turning to `COCC1CCN(c2cc(C(=O)N3CCCS3(=O)=O)nc3c2c(C2CCC2)nn3-c2ccccc2)CC1` [Compound 667, 2-{3-cyclobutyl-4-[4-(methoxymethyl)piperidin-1-yl]-1-phenyl-1H-pyrazolo[3,4-b]pyridine-6-carbonyl}-1λ^6,2-thiazolidine-1,1-dione], the “% Activation” value in assay [1] was determined as 225.5%; in assay [2], 75.435%. Besides, the EC50 was 85.5 nM in assay [1] and 208 nM in assay [2].

For `COCC1CCN(c2cc(C(=O)N3CCCCS3(=O)=O)nc3c2c(C2CCC2)nn3-c2ccccc2)CC1` [Compound 668, 2-{3-cyclobutyl-4-[4-(methoxymethyl)piperidin-1-yl]-1-phenyl-1H-pyrazolo[3,4-b]pyridine-6-carbonyl}-1λ^6,2-thiazinane-1,1-dione], in assay [1], the “% Activation” value is listed as 307.4% and the EC50 came to 257 nM. In assay [2], the “% Activation” value is given as 89.495% and the EC50 turned out to be 384 nM.

With `CNS(=O)(=O)NC(=O)c1cc(N2CCC(COC)CC2)c2c(C3CCC3)nn(-c3ccc(F)cc3)c2n1` [Compound 669, 3-cyclobutyl-1-(4-fluorophenyl)-4-[4-(methoxymethyl)piperidin-1-yl]-N-(methylsulfamoyl)-1H-pyrazolo[3,4-b]pyridine-6-carboxamide], in assay [1], the “% Activation” value is listed as 394% and the EC50 turned out to be 244 nM. Besides, in assay [2], the “% Activation” value is reported as 334.9% and the EC50 was found to be 211 nM.

For `COCCS(=O)(=O)NC(=O)c1cc(N2CCC(COC)CC2)c2c(C3CCC3)nn(-c3ccc(F)cc3)c2n1` [Compound 670, 3-cyclobutyl-1-(4-fluorophenyl)-N-(2-methoxyethanesulfonyl)-4-[4-(methoxymethyl)piperidin-1-yl]-1H-pyrazolo[3,4-b]pyridine-6-carboxamide], in assay [1], the “% Activation” value is given as 477.6% and the concentration giving a half-maximal response (EC50) was found to be 191 nM. Besides, in assay [2], the “% Activation” value came out at 399.2% and the EC50 was determined as 277 nM.

For the compound `COCC1CCN(c2cc(C(=O)NS(=O)(=O)N3CCOCC3)nc3c2c(C2CCC2)nn3-c2ccc(F)cc2)CC1` [Compound 671, 3-cyclobutyl-1-(4-fluorophenyl)-4-[4-(methoxymethyl)piperidin-1-yl]-N-(morpholine-4-sulfonyl)-1H-pyrazolo[3,4-b]pyridine-6-carboxamide], in assay [1], the “% Activation” value is given as 346.1% and the EC50 came to 107 nM. For the same compound, in assay [2], the “% Activation” value was 252.95% and the EC50 was 274 nM.

Take `COCC1CCN(c2cc(C(=O)NS(=O)(=O)CCCO)nc3c2c(C2CCC2)nn3-c2ccc(F)cc2)CC1` [Compound 672, 3-cyclobutyl-1-(4-fluorophenyl)-N-(3-hydroxypropane-1-sulfonyl)-4-[4-(methoxymethyl)piperidin-1-yl]-1H-pyrazolo[3,4-b]pyridine-6-carboxamide]: in assay [1], the “% Activation” value is recorded as 422.4% and the EC50 was 127 nM. Besides, in assay [2], the “% Activation” value stood at 362.9% and the EC50 worked out at 331 nM.

Usually EC50 stands for the midpoint of the concentration-response curve.
